In patent publication US9113629B2, “4-amino-6-(4-substituted-phenyl)-picolinates and 6-amino-2-(4-substituted-phenyl)-pyrimidine-4-carboxylates and their use as herbicides” (DOW AGROSCIENCES LLC, priority 2013, dated 2015):
Read-outs that look alike come from different tables or passages of the source.

Columns and labels:
[1] = system: Key Broadleaf Weed and Crop Species; experiment: Post-emergent Test II herbicidal activity (Table 5); type: in vivo; settings: post-emergence, 336 h, 14 days after application; for pest or weed control at 70 g/ha: application rate 70 g ai/ha; for pest or weed control at 140 g/ha: application rate 140 g ai/ha
Procedure, shortened: (§1)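 Plants grown in Metro-Mix 360 (pH 6.0–6.8) in a greenhouse (~15 h photoperiod, 23–29 °C day) to first or second true leaf stage, then sprayed with compound in acetone/DMSO/aqueous crop-oil-surfactant carrier at 187 L/ha by track sprayer. Injury visually scored 0–100% versus untreated plants after 14 d.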

[2] = system: Key Grass and Sedge Weeds as well as Grass Crops; experiment: Post-emergent Test II herbicidal activity (Table 6); type: in vivo; settings: post-emergence, 336 h; for pest or weed control at 70 g/ha: 70 g ai/ha; for pest or weed control at 140 g/ha: 140 g ai/ha
Procedure, shortened: as §1

[3] = ABUTH: velvetleaf (Abutilon theophrasti), read-out: Visual Growth Reduction (%) 14 Days After Application, ABUTH
[4] = AMARE: redroot pigweed (Amaranthus retroflexus), read-out: Visual Growth Reduction (%) 14 Days After Application, AMARE
[5] = BRSNN: oilseed-rape, canola (Brassica napus), read-out: Visual Growth Reduction (%) 14 Days After Application, BRSNN
[6] = CHEAL: lambsquarters (Chenopodium album), read-out: Visual Growth Reduction (%) 14 Days After Application, CHEAL
[7] = EPHHL: wild poinsettia (Euphorbia heterophylla), read-out: Visual Growth Reduction (%) 14 Days After Application, EPHHL
[8] = HELAN: sunflower (Helianthus annuus), read-out: Visual Growth Reduction (%) 14 Days After Application, HELAN
[9] = VIOTR: wild pansy (Viola tricolor), read-out: Visual Growth Reduction (%) 14 Days After Application, VIOTR
[10] = CYPES: yellow nutsedge (Cyperus esculentus), read-out: Visual Growth Reduction (%) 14 Days After Application, CYPES
[11] = DIGSA: crabgrass (Digitaria sanguinalis), read-out: Visual Growth Reduction (%) 14 Days After Application, DIGSA
[12] = ECHCG: barnyardgrass (Echinochloa crus-galli), read-out: Visual Growth Reduction (%) 14 Days After Application, ECHCG
[13] = ORYSA: rice (Oryza sativa), crop, read-out: Visual Growth Reduction (%) 14 Days After Application, ORYSA
[14] = SETFA: giant foxtail (Setaria faberi), read-out: Visual Growth Reduction (%) 14 Days After Application, SETFA
[15] = SORVU: grain sorghum (Sorghum vulgare), read-out: Visual Growth Reduction (%) 14 Days After Application, SORVU
[16] = TRZSS (wheat, Triticum aestivum), crop, read-out: Visual Growth Reduction (%) 14 Days After Application, TRZSS
[17] = ZEAMX: maize, corn (Zea mays), crop, read-out: Visual Growth Reduction (%) 14 Days After Application, ZEAMX

## C#Cc1ccc(-c2nc(N)c(OC)c(C(=O)OC)n2)c(F)c1 [Compound 59]
[1]; [3]
  pest or weed control at 70 g/ha: 0 to 29%
  pest or weed control at 140 g/ha: 0 to 29%
[1]; [4]
  pest or weed control at 70 g/ha: 0 to 29%
  pest or weed control at 140 g/ha: 0 to 29%
[1]; [5]
  pest or weed control at 70 g/ha: 30 to 44%
  pest or weed control at 140 g/ha: 45 to 59%
[1]; [6]
  pest or weed control at 70 g/ha: 0 to 29%
  pest or weed control at 140 g/ha: 60 to 74%
[1]; [7]
  pest or weed control at 70 g/ha: 0 to 29%
  pest or weed control at 140 g/ha: 0 to 29%
[1]; [8]
  pest or weed control at 70 g/ha: 60 to 74%
  pest or weed control at 140 g/ha: 60 to 74%
[1]; [9]
  pest or weed control at 70 g/ha: 0 to 29%
  pest or weed control at 140 g/ha: 0 to 29%
[2]; [10]
  pest or weed control at 70 g/ha: 0 to 29%
  pest or weed control at 140 g/ha: 0 to 29%
[2]; [11]
  pest or weed control at 70 g/ha: 0 to 29%
  pest or weed control at 140 g/ha: 0 to 29%
[2]; [12]
  pest or weed control at 70 g/ha: 0 to 29%
  pest or weed control at 140 g/ha: 0 to 29%
[2]; [13]
  pest or weed control at 70 g/ha: 0 to 29%
  pest or weed control at 140 g/ha: 0 to 29%
[2]; [14]
  pest or weed control at 70 g/ha: 0 to 29%
  pest or weed control at 140 g/ha: 0 to 29%
[2]; [15]
  pest or weed control at 70 g/ha: 0 to 29%
  pest or weed control at 140 g/ha: 0 to 29%
[2]; [16]
  pest or weed control at 70 g/ha: 0 to 29%
  pest or weed control at 140 g/ha: 0 to 29%
[2]; [17]
  pest or weed control at 70 g/ha: 0 to 29%
  pest or weed control at 140 g/ha: 0 to 29%
other
  melting point: 203 to 205 °C
